Tests used:
human DHODH = human DHODH (Homo sapiens, UniProt Q02127); assay: biochemical
Method: To detect DHODH enzyme activities, dichloroindophenol (DCIP) is added as the final electron acceptor in the assay. DCIP can accept electrons from the reduced coenzyme Q generated in the assay, or from dihydroorotate (DHO) via flavin mononucleotide (FMN) by binding presumably to the ubiquinone pocket. […] The assay buffer contained […], pH 7.5, 150 mM NaCl, 0.5 mM EDTA, and 0.1% Triton X-100 in MilliQ water. Substrate consisting of 20 mM DHO, 5 mM CoQ6, and 1 mM DCIP in assay buffer, initiates the reaction. […] Absorbance measurements were obtained using the BMG Phera Star plate-reading spectrophotomer. Purified human DHODH was purchased from Proteros (cat. No. PR-0044). Chemicals were purchased from Sigma-Aldrich, Teknova, and Avanti Polar Lipids. Liquid handling was performed using Labcyte Echo and Formulatrix Tempest.

MOLM-13 cells = assay: MOLM-13 Cellular Assay; type: cell-based; settings: Homo sapiens, MOLM-13, 72 h, read-out: MOLM-13 Cellular Assay EC50 (nM)
Method: MOLM-13 cells were obtained from DSMZ and were maintained in RPMI 1640+Glutamax+25 mM HEPES (Invitrogen, catalog number 72400) supplemented with 10% heat inactivated fetal bovine serum (FBS; Invitrogen, catalog number 16140). The day prior to assay set-up, cells were pelleted, resuspended in fresh media, counted, and cells were plated at 0.4×10^6 cell/mL in a T150 flask. On the day of the assay, cells were pelleted, resuspend in fresh media, counted and seeded at 5,000 cells/well in white opaque 96-well tissue culture treated microplates (Perkin Elmer, catalog number 6005680). Cells were exposed to different concentrations of test compounds at 37° C., 5% CO2 for 72 hours immediately after seeding. Cell viability was acquired on a Perkin Elmer Envision 2104 multilabel reader using the CellTiter-Glo assay (Promega) according to the manufacturer's instructions.

human DHODH, sequence (Q02127 whole entry): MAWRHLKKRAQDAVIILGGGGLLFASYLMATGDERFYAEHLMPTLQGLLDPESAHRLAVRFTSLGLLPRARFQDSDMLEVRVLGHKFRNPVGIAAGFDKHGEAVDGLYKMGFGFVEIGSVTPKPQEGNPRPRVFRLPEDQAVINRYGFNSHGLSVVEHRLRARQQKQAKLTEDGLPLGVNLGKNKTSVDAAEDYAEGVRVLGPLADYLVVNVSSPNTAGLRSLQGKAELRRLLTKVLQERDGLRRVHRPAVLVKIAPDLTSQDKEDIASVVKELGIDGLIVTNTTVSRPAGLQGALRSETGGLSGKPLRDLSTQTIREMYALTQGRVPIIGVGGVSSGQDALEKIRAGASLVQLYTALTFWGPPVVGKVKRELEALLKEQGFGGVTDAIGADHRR

| SMILES | EC50 (human DHODH) | EC50 (MOLM-13 cells) |
| --- | --- | --- |
| CCCN(C)C(=O)Nc1cc(O[C@@H](C)C(F)(F)F)c(C(=O)Nc2c(F)cccc2Cl)cc1F [Example 14, (S)-N-(2-Chloro-6-fluorophenyl)-5-fluoro-4-(3-methyl-3-propylureido)-2-((1,1,1-trifluoropropan-2-yl)oxy)benzamide] | 7.9 nM | – |
| C[C@H](Oc1cc(NC(=O)N(C)CC#N)c(F)cc1C(=O)Nc1c(F)cccc1Cl)C(F)(F)F [Example 26, (S)-N-(2-Chloro-6-fluorophenyl)-4-(3-(cyanomethyl)-3-methylureido)-5-fluoro-2-((1,1,1-trifluoropropan-2-yl)oxy)benzamide] | 7970 nM | 170 nM |
| CCN(CC(F)F)C(=O)Nc1cc(O[C@@H](C)C(F)(F)F)c(C(=O)Nc2c(C)ccnc2Cl)cc1F [Example 41, (S)-N-(2-Chloro-4-methylpyridin-3-yl)-4-(3-(2,2-difluoroethyl)-3-ethylureido)-5-fluoro-2-((1,1,1-trifluoropropan-2-yl)oxy)benzamide] | 17 nM | 37 nM |
| C[C@H](Oc1cc(NC(=O)N(C)CCC#N)c(F)cc1C(=O)Nc1c(F)cccc1Cl)C(F)(F)F [Example 17, (S)-N-(2-Chloro-6-fluorophenyl)-4-(3-(2-cyanoethyl)-3-methylureido)-5-fluoro-2-((1,1,1-trifluoropropan-2-yl)oxy)benzamide] | 200 nM | – |
| CCN(CCO)C(=O)Nc1cc(O[C@@H](C)C(F)(F)F)c(C(=O)Nc2c(F)cccc2Cl)cc1F [Example 3, (S)-N-(2-Chloro-6-fluorophenyl)-4-(3-ethyl-3-(2-hydroxyethyl)ureido)-5-fluoro-2-((1,1,1-trifluoropropan-2-yl)oxy)benzamide] | – | 1.2 nM |
| C[C@H](Oc1cc(NC(=O)N2CCCCC2)c(F)cc1C(=O)Nc1c(F)cccc1Cl)C(F)(F)F [Example 2, (S)-N-(4-((2-Chloro-6-fluorophenyl)carbamoyl)-2-fluoro-5-((1,1,1-trifluoropropan-2-yl)oxy)phenyl)piperidine-1-carboxamide] | 20 nM | 12 nM |
| C[C@H](Oc1cc(NC(=O)N2CC(CF)C2)c(F)cc1C(=O)Nc1c(F)cccc1Cl)C(F)(F)F [Example 25, (S)-N-(4-((2-Chloro-6-fluorophenyl)carbamoyl)-2-fluoro-5-((1,1,1-trifluoropropan-2-yl)oxy)phenyl)-3-(fluoromethyl)azetidine-1-carboxamide] | 210 nM | 110 nM |
| C[C@H](Oc1cc(NC(=O)N2CC(O)C2)c(F)cc1C(=O)Nc1c(F)cccc1Cl)C(F)(F)F [Example 23, (S)-N-(4-((2-Chloro-6-fluorophenyl)carbamoyl)-2-fluoro-5-((1,1,1-trifluoropropan-2-yl)oxy)phenyl)-3-hydroxyazetidine-1-carboxamide] | 540 nM | 270 nM |
| CCCN(CC)C(=O)Nc1cc(O[C@@H](C)C(F)(F)F)c(C(=O)Nc2c(F)cccc2Cl)cc1F [Example 15, (S)-N-(2-Chloro-6-fluorophenyl)-4-(3-ethyl-3-propylureido)-5-fluoro-2-((1,1,1-trifluoropropan-2-yl)oxy)benzamide] | 20 nM | – |
| CCN(CC(F)F)C(=O)Nc1cc(O[C@@H](C)C(F)(F)F)c(C(=O)Nc2c(F)cccc2Cl)cc1F [Example 7, (S)-N-(2-chloro-6-fluorophenyl)-4-(3-(2,2-difluoroethyl)-3-ethylureido)-5-fluoro-2-((1,1,1-trifluoropropan-2-yl)oxy)benzamide] | – | 1.9 nM |
| C[C@H](Oc1cc(NC(=O)N2CCC(O)C2)c(F)cc1C(=O)Nc1c(F)cccc1Cl)C(F)(F)F (stereo partly drawn) [Example 30, N-(4-((2-Chloro-6-fluorophenyl)carbamoyl)-2-fluoro-5-(((S)-1,1,1-trifluoropropan-2-yl)oxy)phenyl)-3-hydroxypyrrolidine-1-carboxamide] | 120 nM | 57 nM |
| CCN(CC(F)F)C(=O)Nc1cc(O[C@@H](C)C(F)(F)F)c(C(=O)Nc2c(C)ccnc2OC)cc1F [Example 43, (S)-4-(3-(2,2-difluoroethyl)-3-ethylureido)-5-fluoro-N-(2-methoxy-4-methylpyridin-3-yl)-2-((1,1,1-trifluoropropan-2-yl)oxy)benzamide] | 24 nM | 30 nM |
| CCN(CC(F)F)C(=O)Nc1cc(O[C@@H](C)C(F)(F)F)c(C(=O)Nc2c(C)cnc(OC)c2C)cc1F [Example 45, (S)-4-(3-(2,2-Difluoroethyl)-3-ethylureido)-5-fluoro-N-(2-methoxy-3,5-dimethylpyridin-4-yl)-2-((1,1,1-trifluoropropan-2-yl)oxy)benzamide] | 27 nM | 63 nM |
| C[C@H](Oc1cc(NC(=O)N2CC(F)C2)c(F)cc1C(=O)Nc1c(F)cccc1Cl)C(F)(F)F [Example 22, (S)-N-(4-((2-Chloro-6-fluorophenyl)carbamoyl)-2-fluoro-5-((1,1,1-trifluoropropan-2-yl)oxy)phenyl)-3-fluoroazetidine-1-carboxamide] | 7.2 nM | – |
| C[C@H](Oc1cc(NC(=O)N2CCC(CO)C2)c(F)cc1C(=O)Nc1c(F)cccc1Cl)C(F)(F)F (stereo partly drawn) [Example 13, N-(4-((2-Chloro-6-fluorophenyl)carbamoyl)-2-fluoro-5-(((S)-1,1,1-trifluoropropan-2-yl)oxy)phenyl)-3-(hydroxymethyl)pyrrolidine-1-carboxamide] | 950 nM | 220 nM |

Next, values leading:

| EC50 (human DHODH) | EC50 (MOLM-13 cells) | SMILES |
| --- | --- | --- |
| 7 nM | 9.6 nM | CCN(CC(F)F)C(=O)Nc1cc(O[C@@H](C)C(F)(F)F)c(C(=O)Nc2c(C)cnc(OC)c2Cl)cc1F [Example 44, (S)-N-(3-Chloro-2-methoxy-5-methylpyridin-4-yl)-4-(3-(2,2-difluoroethyl)-3-ethylureido)-5-fluoro-2-((1,1,1-trifluoropropan-2-yl)oxy)benzamide] |
| 3.6 nM | 25 nM | COc1ncc(C)c(NC(=O)c2cc(F)c(NC(=O)N3CCC[C@@H]3CO)cc2O[C@@H](C)C(F)(F)F)c1C [Example 40, (R)-N-(2-Fluoro-4-((2-methoxy-3,5-dimethylpyridin-4-yl)carbamoyl)-5-(((S)-1,1,1-trifluoropropan-2-yl)oxy)phenyl)-2-(hydroxymethyl)pyrrolidine-1-carboxamide] |
| 2.6 nM | 3.5 nM | COc1ncc(C)c(NC(=O)c2cc(F)c(NC(=O)N3CCC[C@@H]3CO)cc2O[C@@H](C)C(F)(F)F)c1Cl [Example 39, (R)-N-(4-((3-Chloro-2-methoxy-5-methylpyridin-4-yl)carbamoyl)-2-fluoro-5-(((S)-1,1,1-trifluoropropan-2-yl)oxy)phenyl)-2-(hydroxymethyl)pyrrolidine-1-carboxamide] |
| 2.6 nM | 6.6 nM | Cc1ccnc(Cl)c1NC(=O)c1cc(F)c(NC(=O)N2CCC[C@@H]2CO)cc1O[C@@H](C)C(F)(F)F [Example 36, (R)-N-(4-((2-Chloro-4-methylpyridin-3-yl)carbamoyl)-2-fluoro-5-(((S)-1,1,1-trifluoropropan-2-yl)oxy)phenyl)-2-(hydroxymethyl)pyrrolidine-1-carboxamide] |
| 0.7 nM | 11 nM | Cc1n[nH]c(Cl)c1NC(=O)c1cc(F)c(NC(=O)N2CCC[C@@H]2CO)cc1O[C@@H](C)C(F)(F)F [Example 37, (R)-N-(4-((5-Chloro-3-methyl-1H-pyrazol-4-yl)carbamoyl)-2-fluoro-5-(((S)-1,1,1-trifluoropropan-2-yl)oxy)phenyl)-2-(hydroxymethyl)pyrrolidine-1-carboxamide] |
| 2.6 nM | 1.5 nM | C[C@H](Oc1cc(NC(=O)N(C)CCO)c(F)cc1C(=O)Nc1c(F)cccc1Cl)C(F)(F)F [Example 18, (S)-N-(2-Chloro-6-fluorophenyl)-5-fluoro-4-(3-(2-hydroxyethyl)-3-methylureido)-2-((1,1,1-trifluoropropan-2-yl)oxy)benzamide] |
| 4.7 nM | – | C[C@H](Oc1cc(NC(=O)N(C)CCF)c(F)cc1C(=O)Nc1c(F)cccc1Cl)C(F)(F)F [Example 16, (S)-N-(2-chloro-6-fluorophenyl)-5-fluoro-4-(3-(2-fluoroethyl)-3-methylureido)-2-((1,1,1-trifluoropropan-2-yl)oxy)benzamide] |
| 3 nM | 11 nM | CCN(CC(F)F)C(=O)Nc1cc(O[C@@H](C)C(F)(F)F)c(C(=O)Nc2c(C)n[nH]c2Cl)cc1F [Example 42, (S)-N-(5-Chloro-3-methyl-1H-pyrazol-4-yl)-4-(3-(2,2-difluoroethyl)-3-ethylureido)-5-fluoro-2-((1,1,1-trifluoropropan-2-yl)oxy)benzamide] |
| 3.6 nM | 1.2 nM | CCN(CCOC)C(=O)Nc1cc(O[C@@H](C)C(F)(F)F)c(C(=O)Nc2c(F)cccc2Cl)cc1F [Example 6, (S)-N-(2-Chloro-6-fluorophenyl)-4-(3-ethyl-3-(2-methoxyethyl)ureido)-5-fluoro-2-((1,1,1-trifluoropropan-2-yl)oxy)benzamide] |
| 2.8 nM | – | C[C@H](Oc1cc(NC(=O)N2CCC2)c(F)cc1C(=O)Nc1c(F)cccc1Cl)C(F)(F)F [Example 20, (S)-N-(4-((2-Chloro-6-fluorophenyl)carbamoyl)-2-fluoro-5-((1,1,1-trifluoropropan-2-yl)oxy)phenyl)azetidine-1-carboxamide] |

Source: US20220298107A1, “SUBSTITUTED UREA DIHYDROOROTATE DEHYDROGENASE INHIBITORS” (Janssen Biotech, Inc., priority 2019, published 2022)
